37 compounds from the supplement of paper PMC12137928 can be followed below.

Molecules are shown by their SMILES. Where a name gives a salt, the structure may show the parent alone. Some results are limits rather than exact numbers.

This experiment has as its system HCT116. Particulars: 72 h. The procedure, abridged: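 IC50 and maximal efficacy were derived from four-parameter Hill curve fits. The underlying CellTiter-Glo luminescence was scaled so that vehicle equals 0% and positive control equals -100%, and was then pattern-corrected. HCT116 cells had been seeded in 1536-well plates at 250 per well.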

With `C[N+]1(CC2COC(c3ccccc3)(c3ccccc3)O2)CCCCC1` (centres undefined) [Anacolin], the IC50 cell viability by setting is: (ICRF193 0 nM) > 45.8 µM; (ICRF193 200 nM) > 45.8 µM.
Consider `O=C1CN2Cc3c(ccc(Cl)c3Cl)N=C2N1` [Anagrelide hydrochloride], for which the IC50 cell viability runs as follows: (ICRF193 0 nM) > 45.8 µM; (ICRF193 200 nM) > 45.8 µM.
With `CC(C)(C#N)c1cc(Cn2cncn2)cc(C(C)(C)C#N)c1` [Anastrozole], the IC50 cell viability reads like this: (ICRF193 0 nM) > 45.8 µM; (ICRF193 200 nM) > 45.8 µM.
Turning to `C[C@]12CCC(=O)C[C@@H]1CC[C@@H]1[C@@H]2CC[C@]2(C)C=CC[C@@H]12` [Androstenone], the IC50 cell viability is, setting by setting: (ICRF193 0 nM) > 45.8 µM; (ICRF193 200 nM) > 45.8 µM.
For `COc1ccc(-c2cc(=S)ss2)cc1` [Anethole trithione], the IC50 cell viability (ICRF193 0 nM) is > 45.8 µM and the IC50 cell viability (ICRF193 200 nM) is > 45.8 µM.
Regarding `C/C=C/c1ccc(OC)cc1` [Anethole], the IC50 cell viability was > 45.8 µM (ICRF193 0 nM) and > 45.8 µM (ICRF193 200 nM).
As for `CCCCCOc1ccc(-c2ccc(-c3ccc(C(=O)N[C@H]4C[C@@H](O)[C@@H](O)NC(=O)[C@@H]5[C@@H](O)[C@@H](C)CN5C(=O)[C@H]([C@@H](C)O)NC(=O)[C@H]([C@H](O)[C@@H](O)c5ccc(O)cc5)NC(=O)[C@@H]5C[C@@H](O)CN5C(=O)[C@H]([C@@H](C)O)NC4=O)cc3)cc2)cc1` [Anidulafungin], the IC50 cell viability is > 45.8 µM (ICRF193 0 nM) and > 45.8 µM (ICRF193 200 nM).
As to `CCOC(=O)C1(c2ccccc2)CCN(CCc2ccc(N)cc2)CC1` [Anileridine], the IC50 cell viability runs as follows: (ICRF193 0 nM) > 45.8 µM; (ICRF193 200 nM) > 45.8 µM.
`COc1ccc(C(=O)N2CCCC2=O)cc1` [Aniracetam]: the IC50 cell viability by setting is: (ICRF193 0 nM) > 45.8 µM; (ICRF193 200 nM) > 45.8 µM.
As to `COc1ccc(C2C(=O)c3ccccc3C2=O)cc1` [Anisindione], the IC50 cell viability reads like this: (ICRF193 0 nM) > 45.8 µM; (ICRF193 200 nM) > 45.8 µM.
As to `CCCC(CCC)C(=O)O[C@H]1C[C@H]2CC[C@@H](C1)[N+]2(C)C` [Anisotropine methylbromide], the IC50 cell viability by setting is: (ICRF193 0 nM) > 45.8 µM; (ICRF193 200 nM) > 45.8 µM.
On to `c1ccc(CN(CC2=NCCN2)c2ccccc2)cc1` [Antazoline hydrochloride], for which the IC50 cell viability by setting is: (ICRF193 0 nM) > 45.8 µM; (ICRF193 200 nM) > 45.8 µM.
With `O=C1c2c(O)cccc2Cc2cccc(O)c21` [Anthralin], the IC50 cell viability reads like this: (ICRF193 0 nM) > 45.8 µM; (ICRF193 200 nM) > 45.8 µM.
`O=C1c2ccccc2C(=O)c2ccccc21` [Anthraquinone]: the IC50 cell viability is, setting by setting: (ICRF193 0 nM) > 45.8 µM; (ICRF193 200 nM) > 45.8 µM.
Take `Cc1nnc2n1-c1sc(CCC(=O)N3CCOCC3)cc1C(c1ccccc1Cl)=NC2` [Apafant]: the IC50 cell viability by setting is: (ICRF193 0 nM) > 45.8 µM; (ICRF193 200 nM) > 45.8 µM.
With `COc1ccc(-n2nc(C(N)=O)c3c2C(=O)N(c2ccc(N4CCCCC4=O)cc2)CC3)cc1` [Apixaban], the IC50 cell viability was > 45.8 µM (ICRF193 0 nM) and > 45.8 µM (ICRF193 200 nM).
For the compound `NNc1nncc2ccccc12` [Apresoline], the IC50 cell viability was > 45.8 µM (ICRF193 0 nM) and > 45.8 µM (ICRF193 200 nM).
For the compound `CCN(CC)CCCN(c1ccccc1)C1Cc2ccccc2C1` [Aprindine hydrochloride], the IC50 cell viability was > 45.8 µM (ICRF193 0 nM) and > 45.8 µM (ICRF193 200 nM).
Turning to `OC[C@H]1O[C@@H](Oc2ccc(O)cc2)[C@H](O)[C@@H](O)[C@@H]1O` [Arbutin], the IC50 cell viability is, setting by setting: (ICRF193 0 nM) > 45.8 µM; (ICRF193 200 nM) > 45.8 µM.
In the case of `CC1CNc2c(cccc2S(=O)(=O)N[C@@H](CCCNC(=N)N)C(=O)N2CC[C@@H](C)C[C@@H]2C(=O)O)C1` (some centres undefined) [Argatroban], the IC50 cell viability (ICRF193 0 nM) is > 45.8 µM and the IC50 cell viability (ICRF193 200 nM) was > 45.8 µM.
With `CC(C)(C)NCC(O)CSc1nc(-c2ccc(C(N)=O)s2)cs1` (centres undefined) [Arotinolol hydrochloride], the IC50 cell viability was > 45.8 µM (ICRF193 0 nM) and > 45.8 µM (ICRF193 200 nM).
`CO[C@H]1O[C@@H]2O[C@@]3(C)CC[C@H]4[C@H](C)CC[C@@H]([C@H]1C)[C@@]24OO3` [Artemether]: the IC50 cell viability runs as follows: (ICRF193 0 nM) > 45.8 µM; (ICRF193 200 nM) > 45.8 µM.
Turning to `CCCNC(C)C(=O)Nc1c(C)csc1C(=O)OC` (centres undefined) [Articaine hydrochloride], the IC50 cell viability reads like this: (ICRF193 0 nM) > 45.8 µM; (ICRF193 200 nM) > 45.8 µM.
Take `CN1CC2c3ccccc3Oc3ccc(Cl)cc3C2C1` (centres undefined) [Asenapine]: the IC50 cell viability is, setting by setting: (ICRF193 0 nM) > 45.8 µM; (ICRF193 200 nM) > 45.8 µM.
With `CC(=O)Oc1ccccc1C(=O)O` [Aspirin], the IC50 cell viability by setting is: (ICRF193 0 nM) > 45.8 µM; (ICRF193 200 nM) > 45.8 µM.
As for `CNC(=O)C[C@@H](N)C(=O)N[C@@H](C(=O)N[C@@H]1C(=O)N2[C@@H]1SC(C)(C)[C@@H]2C(=O)O)c1ccc(O)cc1` [Aspoxicillin], the IC50 cell viability runs as follows: (ICRF193 0 nM) > 45.8 µM; (ICRF193 200 nM) > 45.8 µM.
Turning to `CO[C@H]1[C@@H](O)[C@H](N)[C@@H](O[C@H]2O[C@H]([C@H](C)N)CC[C@H]2N)[C@H](O)[C@@H]1N(C)C(=O)CN` [Astromicin], the IC50 cell viability by setting is: (ICRF193 0 nM) > 45.8 µM; (ICRF193 200 nM) > 45.8 µM.
`COC(=O)N[C@H](C(=O)N[C@@H](Cc1ccccc1)[C@@H](O)CN(Cc1ccc(-c2ccccn2)cc1)NC(=O)[C@@H](NC(=O)OC)C(C)(C)C)C(C)(C)C` [Atazanavir]: the IC50 cell viability is > 45.8 µM (ICRF193 0 nM) and > 45.8 µM (ICRF193 200 nM).
`CCOc1ccc(C[C@H]2NC(=O)CCSSC[C@@H](C(=O)N3CCC[C@H]3C(=O)N[C@@H](CCCN)C(=O)NCC(N)=O)NC(=O)[C@H](CC(N)=O)NC(=O)[C@H]([C@@H](C)O)NC(=O)[C@H]([C@@H](C)CC)NC2=O)cc1` [Atosiban]: the IC50 cell viability (ICRF193 0 nM) is > 45.8 µM and the IC50 cell viability (ICRF193 200 nM) is > 45.8 µM.
For the compound `COc1ccc(CC2c3cc(OC)c(OC)cc3CC[N+]2(C)CCC(=O)OCCCCCOC(=O)CC[N+]2(C)CCc3cc(OC)c(OC)cc3C2Cc2ccc(OC)c(OC)c2)cc1OC` (centres undefined) [Atracurium besylate], the IC50 cell viability was > 45.8 µM (ICRF193 0 nM) and > 45.8 µM (ICRF193 200 nM).
As to `COc1ccc([C@@H]2CC(=O)c3c(O)cc(O[C@@H]4O[C@H](CO[C@@H]5O[C@@H](C)[C@H](O)[C@@H](O)[C@H]5O)[C@@H](O)[C@H](O)[C@H]4O)cc3O2)cc1O` [Aurantiamarin (Methyl Hesperidin)], the IC50 cell viability is, setting by setting: (ICRF193 0 nM) > 45.8 µM; (ICRF193 200 nM) > 45.8 µM.
As for `COc1ccc(CNc2nc(N3CCC[C@H]3CO)ncc2C(=O)NCc2ncccn2)cc1Cl` [Avanafil], the IC50 cell viability by setting is: (ICRF193 0 nM) > 45.8 µM; (ICRF193 200 nM) > 45.8 µM.
`NC(=O)[C@@H]1CC[C@@H]2CN1C(=O)N2OS(=O)(=O)O` [Avibactam sodium]: the IC50 cell viability reads like this: (ICRF193 0 nM) > 45.8 µM; (ICRF193 200 nM) > 45.8 µM.
`COc1ccc(C(=O)CC(=O)c2ccc(C(C)(C)C)cc2)cc1` [Avobenzone]: the IC50 cell viability was > 45.8 µM (ICRF193 0 nM) and > 45.8 µM (ICRF193 200 nM).
As for `CCCC1C(=O)N2C(N(C)C)=Nc3ccc(C)cc3N2C1=O` (centres undefined) [Azapropazone], the IC50 cell viability reads like this: (ICRF193 0 nM) > 45.8 µM; (ICRF193 200 nM) > 45.8 µM.
For the compound `CN1CCC(=C2c3ccccc3CCc3cccnc32)CC1` [Azatadine], the IC50 cell viability by setting is: (ICRF193 0 nM) > 45.8 µM; (ICRF193 200 nM) > 45.8 µM.
With `CCOc1nc2cccc(C(=O)O)c2n1Cc1ccc(-c2ccccc2-c2noc(=O)[nH]2)cc1` [Azilsartan (TAK-536)], the IC50 cell viability is > 45.8 µM (ICRF193 0 nM) and > 45.8 µM (ICRF193 200 nM).
